The term MIC90 denotes an inhibitory concentration at the 90% level, which refers to growth in some studies and to a panel of isolates in others. The term MIC denotes the smallest concentration in the dilution series that meets the test's criterion for growth inhibition.

Results on two molecules are retold here after ChEMBL document CHEMBL5331089, “Mucormycosis: A hidden mystery of fungal infection, possible diagnosis, treatment and development of new therapeutic agents” (Eur J Med Chem, 2023).

Values after ≈ are worked out from the molar mass of the structure shown.

Assay type in all cases: functional
The nature of experiment [1]: Antifungal activity against Rhizopus microsporus NRRL 514 assessed as fungal growth inhibition measured after 48 hrs by microtitre plate reader assay.
Experiment [2] has as its system Mucor circinelloides. Description: Antifungal activity against Mucor circinelloides MS 12 assessed as fungal growth inhibition.
Experiment [3] relates to Rhizopus arrhizus. Description: Antifungal activity against Rhizopus oryzae CBS 146.90 assessed as fungal growth inhibition.
For the next experiment, the system named is Mucor mucedo. Description: Antifungal activity against Mucor mucedo WRL CN(M) assessed as fungal growth inhibition.
The subject of experiment [4] is Rhizomucor miehei. Description: Antifungal activity against Rhizomucor miehei CBS 360.92 assessed as fungal growth inhibition measured after 48 hrs by microtitre plate reader assay.
For experiment [5], the system named is Rhizopus arrhizus. Description: Antifungal activity against Rhizopus oryzae CBS 112.07 assessed as fungal growth inhibition measured after 48 hrs by microtitre plate reader assay.
For experiment [6], the system named is Rhizomucor miehei. The experiment in a line: Antifungal activity against Rhizomucor miehei CBS 360.92 assessed as fungal growth inhibition.
The test system of experiment [7] is Rhizomucor pusillus. Description: Antifungal activity against Rhizomucor pusillus ETH M4920 assessed as fungal growth inhibition.
The subject of a further experiment is Absidia glauca. The experiment in a line: Antifungal activity against Absidia glauca SZMC 11072 assessed as fungal growth inhibition.
The test system of experiment [8] is Rhizomucor pusillus. Description: Antifungal activity against Rhizomucor pusillus CN(M)231 assessed as fungal growth inhibition measured after 48 hrs by microtitre plate reader assay.
In experiment [9] the test system is Rhizopus arrhizus. Description: Antifungal activity against Rhizopus oryzae clinical isolate assessed as fungal growth inhibition measured after 24 to 72 hrs by microtitre plate reader analysis. As to conditions: time 24-72 hrs.
The test system of experiment [10] is Rhizopus arrhizus. The experiment in a line: Antifungal activity against Rhizopus oryzae clinical isolate assessed as fungal growth inhibition by checkerboard broth microdilution assay. (In broth dilution the organism is exposed to a series of concentrations in liquid medium.)
In experiment [11] the test system is Syncephalastrum racemosum. The experiment in a line: Antifungal activity against Syncephalastrum racemosum SZMC 2011 assessed as fungal growth inhibition measured after 48 hrs by microtitre plate reader assay.
Experiment [12] relates to Rhizomucor pusillus. The experiment in a line: Antifungal activity against Rhizomucor pusillus clinical isolate assessed as fungal growth inhibition measured after 48 hrs by microtitre plate reader analysis.
The subject of the next experiment is Lichtheimia corymbifera. The experiment in a line: Antifungal activity against Absidia corymbifera SZMC 2010 assessed as fungal growth inhibition measured after 48 hrs by microtitre plate reader assay.
In experiment [13] the test system is Rhizopus arrhizus. Description: Antifungal activity against Rhizopus oryzae CBS 109939 assessed as fungal growth inhibition by checkerboard broth microdilution assay.
Another experiment relates to Mucor racemosus. Description: Antifungal activity against Mucor racemosus WRL CN(M)304 assessed as fungal growth inhibition.
For experiment [14], the system named is Rhizomucor pusillus. The experiment in a line: Antifungal activity against environmental and clinical isolate Rhizomucor pusillus assessed as fungal growth inhibition measured after 24 to 48 hrs by plate reader assay. Particulars: time 24-48 hrs.
A further experiment has as its system Rhizopus homothallicus. Description: Antifungal activity against Rhizopus homothallicus clinical isolate assessed as fungal growth inhibition.
Experiment [15] concerns Mucor circinelloides. Description: Antifungal activity against Mucor circinelloides clinical isolate assessed as fungal growth inhibition.
For experiment [16], the system named is Cunninghamella bertholletiae. The experiment in a line: Antifungal activity against Cunninghamella bertholletiae clinical isolate assessed as fungal growth inhibition.
The test system of experiment [17] is Syncephalastrum racemosum. Description: Antifungal activity against Syncephalastrum racemosum SZMC 2011 assessed as fungal growth inhibition measured after 24 hrs by microtitre plate reader assay.
Experiment [18] relates to Rhizopus arrhizus. The experiment in a line: Antifungal activity against Rhizopus oryzae clinical isolate assessed as fungal growth inhibition.
The subject of experiment [19] is Rhizomucor miehei. Description: Antifungal activity against environmental and clinical isolate Rhizomucor miehei assessed as fungal growth inhibition measured after 24 to 48 hrs by plate reader assay. Particulars: time 24-48 hrs.

As for `CC(C)n1c(/C=C/[C@H](O)C[C@H](O)CC(=O)O)c(-c2ccc(F)cc2)c2ccccc21`, the MIC90 in [1] is 33 mg/L (≈ 80.2 µM); with Rhizomucor miehei [4], 3.6 mg/L (≈ 8.75 µM); in the experiment with Lichtheimia corymbifera, 3.6 mg/L (≈ 8.75 µM). The MIC stood at 4 mg/L (≈ 9.72 µM) in the experiment on Mucor circinelloides [2]; 12.5 mg/L (≈ 30.4 µM) with Rhizopus arrhizus [3]; 6.25 mg/L (≈ 15.2 µM) with Mucor mucedo; 3.6 mg/L (≈ 8.75 µM) in the experiment on Rhizopus arrhizus [5]; 3.12 mg/L (≈ 7.59 µM) in the experiment on Rhizomucor miehei [6]; 6.25 mg/L (≈ 15.2 µM) with Rhizomucor pusillus [7]. For the same molecule, the MIC was determined as 6.25 mg/L (≈ 15.2 µM) in the experiment with Absidia glauca; 0.4 mg/L (≈ 0.972 µM) in the experiment with Rhizomucor pusillus [8]; 2 mg/L (≈ 4.86 µM) in the experiment on Rhizopus arrhizus [9]; 2 mg/L with Rhizopus arrhizus [10]; 11 mg/L (≈ 26.7 µM) in [11]; 0.4 mg/L (≈ 0.972 µM) in the experiment with Rhizomucor pusillus [12]. Besides, the results for the minimum inhibitory concentration (MIC) with Rhizopus arrhizus [13] and in the experiment on Mucor racemosus were 2 mg/L and 25 mg/L (≈ 60.8 µM), respectively.
Regarding `CC[C@H](C)C(=O)O[C@H]1C[C@@H](C)C=C2C=C[C@H](C)[C@H](CC[C@@H]3C[C@@H](O)CC(=O)O3)[C@H]21` [LOVASTATIN], the MIC was 1 mg/L (≈ 2.47 µM) in the experiment on Rhizomucor pusillus [14]; 40 mg/L (≈ 98.9 µM) in the experiment on Rhizopus homothallicus; 16 mg/L (≈ 39.6 µM) in the experiment with Mucor circinelloides [15]; 128 mg/L (≈ 316 µM) with Rhizopus arrhizus [9]; 32 mg/L (≈ 79.1 µM) in experiment [16]; 16 mg/L (≈ 39.6 µM) in experiment [17]. Besides, the MIC was 32.6 mg/L (≈ 80.5 µM) with Rhizopus arrhizus [18], 128 mg/L with Rhizopus arrhizus [13] and 64 mg/L (≈ 158 µM) with Rhizomucor miehei [19]. Besides, in the experiment on Rhizomucor pusillus [8], the MIC90 is 3.6 mg/L (≈ 8.9 µM).
